Measured values as given in patent publication US9241991B2, “Agents, compositions, and methods for treating pruritus and related skin conditions” (The Brigham and Women's Hospital, Inc., priority 2010, dated 2016).
One block for each compound: values may come before it.

How the values were obtained:
TRPV1 [1] = biological target: T1, TRPV1 (Mus musculus, UniProt Q704Y3); assay: Behavior after intrathecal injection of capsaicin; type: in vivo; conditions: WT mice
DRG neurons = assay: Calcium imaging from cultured DRG neurons; type: cell-based; conditions: wild-type mice DRG neurons
Experimental: DRGs from all spinal levels of 4-week old mice were collected in cold DH10 (90% DMEM/F-12, 10% FBS, 100 U/ml penicillin, and 100 μg/ml Streptomycin, Gibco) and treated with enzyme solution (5 mg/ml Dispase, 1 mg/ml Collagenase Type I in HPBS without Ca^++ and Mg^++, Gibco) at 37° C. Following trituration and centrifugation, cells were resuspended in DH10, plated on glass cover slips coated with poly-D-lysine (0.5 mg/ml, Stoughton, Mass.) and laminin (10 μg/ml, Invitrogen), cultured in an incubator ([…] and 5% CO2) at 37° C. and used within 24 hours. Neurons were loaded with Fura 2-acetomethoxy ester (Molecular Probes) for 30 min in the dark at room temperature. After washing, cells were imaged at 340 and 380 nm excitation to detect intracellular free calcium. To compare the response to histamine, chloroquine, and capsaicin between WT and Tlr3-deficient DRG neurons, calcium imaging assays were performed with an experimenter blind to genotype (n=3 per genotype), and the percentages of DRG neurons showing calcium responses were determined as we previously described (23).

TRPV1 [2] = biological target: T1, TRPV1; assay: Patch clamp recording of sEPSCs in lamina II neurons of spinal cord slices, capsaicin; type: cell-based; parameters: central terminals of TRPV1-expressing nociceptors; from tissue; host or cells: mouse lumbar spinal cord slices (L4-L5); live mice (intrathecal capsaicin, resiniferatoxin pretreatment); conditions: capsaicin 1 μM, WT mice spinal cord slices
TLR3 [3] = assay: Compound 48/80- and chloroquine-induced scratching after intrathecal TLR3 AS-ODNs; type: in vivo; conditions: intrathecal AS-ODNs 10 μg daily for 5 days, adult mice; P<0.05
Experimental: (§1) We injected pruritic agents intradermally in the nape of the neck (50 μl) or cheek (10 μl), respectively. We purchased histamine, compound 48/80, trypsin, chloroquine, serotonin, TLR3 agonist polyribo-inosinic/cytidylic acid (PIC), and complete Freund's adjuvant (CFA) from Sigma-Aldrich, histamine H1 receptor agonist histamine-trifluoromethyl-toluidine (HTMT), capsaicin, and the H4R-selective agonist 4-methylhistamine (4-MeHA) from Tocris, and endothelin-1 (ET-1) from ALEXIS Biochemicals. […] Antisense oligodeoxynucleotides (AS-ODN; 5′-[…]-3′; SEQ ID NO:1) targeting TLR3 and mismatch ODN (MM-ODN; 5′-[…]-3′; SEQ ID NO:2) were synthesized by Invitrogen according to the published sequences (2). AS-ODN (10 μg) or MM-ODN were intrathecally injected once a day for 5 days. To target DRG and spinal cord cells, TRIF inhibitor (10 μl) were delivered intrathecally into cerebral spinal fluid via a lumbar puncture. […]
Mice were habituated to the testing environment daily for at least two days before analysis. <ice were shaved at the back of the neck the day before injection. […] We injected 50 μl of pruritic agent intradermally in the nape of the neck and counted the number of scratches every 5 min for 30 min after the injection. A scratch was counted when a mouse lifted its hindpaw to scratch the shaved region and returned the paw to the floor or to the mouth for licking. […]

TLR3 [4] = assay: TLR3 protein and mRNA levels in DRGs after intrathecal TLR3 antisense ODNs (Western blotting, quantitative PCR); type: in vivo; conditions: intrathecal AS-ODNs 10 μg daily for 5 days, adult WT mice; P<0.05
Experimental: as §1
Mice were terminally anesthetized with isoflurane and transcardially perfused with PBS, and the DRGs were rapidly removed and homogenized in a lysis buffer containing a cocktail of protease inhibitors and phosphatase inhibitors. The protein concentrations were determined by BCA Protein Assay (Pierce), and 30 μg of proteins were loaded for each lane and separated on SDS-PAGE gel (4-15%, Bio-Rad). […]

TLR4 = TLR4 expression in the DRG after intrathecal AS-ODNs (specificity); type: in vivo, mice
Experimental: We injected pruritic agents intradermally in the nape of the neck (50 μl) or cheek (10 μl), respectively. We purchased histamine, compound 48/80, trypsin, chloroquine, serotonin, TLR3 agonist polyribo-inosinic/cytidylic acid (PIC), and complete Freund's adjuvant (CFA) from Sigma-Aldrich, histamine H1 receptor agonist histamine-trifluoromethyl-toluidine (HTMT), capsaicin, and the H4R-selective agonist 4-methylhistamine (4-MeHA) from Tocris, and endothelin-1 (ET-1) from ALEXIS Biochemicals. […] Antisense oligodeoxynucleotides (AS-ODN; 5′-[…]-3′; SEQ ID NO:1) targeting TLR3 and mismatch ODN (MM-ODN; 5′-[…]-3′; SEQ ID NO:2) were synthesized by Invitrogen according to the published sequences (2). AS-ODN (10 μg) or MM-ODN were intrathecally injected once a day for 5 days. To target DRG and spinal cord cells, TRIF inhibitor (10 μl) were delivered intrathecally into cerebral spinal fluid via a lumbar puncture. A successful spinal puncture was evidenced by a brisk tail-flick after the needle entry into subarachnoid space (3). Most reagents were dissolved in sterile saline. Capsaicin was dissolved in 10% DMSO.
We collected back hairy skin and cervical DRGs from 4 pairs of WT and Tlr3^−/− mice and isolated total RNAs using RNeasy Plus Mini kit (Qiagen, Valencia, Calif.). […]

TLR3 [5] = biological target: T2, TLR3 (Mus musculus, UniProt Q99MB1); assay: Patch-clamp recording of PIC-induced inward currents in dissociated DRG neurons; type: cell-based, mice; parameters: from tissue; host or cells: mouse DRG (dissociated small neurons), lumbar spinal cord slices, neck skin of live mice
T2 sequence (Q99MB1 26-905): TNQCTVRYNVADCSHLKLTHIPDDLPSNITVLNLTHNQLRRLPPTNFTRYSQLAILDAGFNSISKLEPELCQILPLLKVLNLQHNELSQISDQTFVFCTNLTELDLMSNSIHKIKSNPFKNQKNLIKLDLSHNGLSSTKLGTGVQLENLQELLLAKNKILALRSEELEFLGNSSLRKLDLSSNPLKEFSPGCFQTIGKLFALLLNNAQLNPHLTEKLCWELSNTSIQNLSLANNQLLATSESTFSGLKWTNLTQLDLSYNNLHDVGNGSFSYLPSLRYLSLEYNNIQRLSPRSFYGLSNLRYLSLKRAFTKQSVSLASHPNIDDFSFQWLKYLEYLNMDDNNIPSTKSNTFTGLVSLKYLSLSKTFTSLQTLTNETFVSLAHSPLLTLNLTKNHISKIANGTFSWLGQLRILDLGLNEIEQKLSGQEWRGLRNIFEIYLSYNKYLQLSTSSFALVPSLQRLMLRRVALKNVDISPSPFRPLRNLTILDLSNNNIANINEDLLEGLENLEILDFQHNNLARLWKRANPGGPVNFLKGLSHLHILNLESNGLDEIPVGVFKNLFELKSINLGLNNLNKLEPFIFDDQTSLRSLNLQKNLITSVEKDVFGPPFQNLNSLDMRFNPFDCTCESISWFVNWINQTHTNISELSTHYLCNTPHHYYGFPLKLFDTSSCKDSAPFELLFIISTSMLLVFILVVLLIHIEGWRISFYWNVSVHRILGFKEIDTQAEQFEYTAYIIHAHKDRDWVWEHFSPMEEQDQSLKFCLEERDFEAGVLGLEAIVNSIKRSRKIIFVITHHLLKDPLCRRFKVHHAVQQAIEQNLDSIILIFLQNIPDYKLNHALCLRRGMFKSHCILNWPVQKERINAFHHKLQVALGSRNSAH
Experimental: DRGs were removed aseptically from 4-week old mice and first incubated with collagenase (1.25 mg/ml, Roche)/dispase-II (2.4 units/ml, Roche) at 37° C. for 90 min, then digested with 0.25% trypsin (Cellgro) for 8 min at 37° C., followed by 0.25% trypsin inhibitor (Sigma). Cells were then mechanically dissociated with a flame polished Pasteur pipette in the presence of 0.05% DNAse I (Sigma). DRG cells were plated onto poly-D-lysine and laminin-coated slide chambers (for immunocytochemistry) or glass cover slips (for electrophysiology) and grown in a neurobasal defined medium (with 2% B27 supplement, Invitrogen) in the presence of 5 μM AraC, at 36.5° C., with 5% carbon dioxide.
Single-cell RT-PCR was performed as previously described (6). DRG cultures were prepared as above described and grown on glass cover slips coated with poly-D-lysine and laminin. Whole-cell patch clamp recordings were performed at room temperature to measure currents in dissociated DRG neurons with small-sizes using Axopatch-200B amplifier (Axon Instruments, Union City, USA). The patch pipettes were pulled from borosilicate capillaries (Chase Scientific Glass Inc., Rockwood, Calif., USA). When filled with the pipette solution, the resistance of the pipettes was 4˜5 MΩ. The recording chamber (volume 300 μl) was continuously superfused (3-4 ml/min). Series resistance was compensated for (>80%), and leak subtraction was performed. Data were low-pass-filtered at 2 KHz, sampled at 10 KHz. The pClamp8 (Axon Instruments) software was used during experiments and analysis. The pipette solution was composed of (in mM): 126 K-gluconate, 10 NaCl, 1 MgCl2, 10 EGTA, 2 NaATP, 0.1 MgGTP, pH 7.3 with KOH, 295-300 mOsm. Extracellular solution contained (in mM): 140 NaCl, 5 KCl, 2 CaCl2, 1 MgCl2, 10 HEPES, 10 glucose adjusted to pH 7.4 with NaOH, osmolarity 310 mOsm. Inward currents were recorded at a holding potential of −60 mV. In some experiments, following parch-clamp recording, the recorded DRG neurons were collected for single-cell RT-PCR analysis.

TLR3 [6] = biological target: T2, TLR3; assay: Patch clamp recording of sEPSCs in lamina II neurons of spinal cord slices, PIC; type: cell-based; parameters: from tissue; host or cells: mouse DRG (dissociated small neurons), lumbar spinal cord slices, neck skin of live mice; conditions: PIC 100 ng/ml, slices of WT but not Tlr3-/- mice; P<0.05
Experimental: As we previously reported (18), a portion of the lumbar spinal cord (L4-L5) was removed from mice (4-6 week old) under urethane anesthesia (1.5-2.0 g/kg, i.p.) and kept in pre-oxygenated ice-cold Krebs solution. Transverse slices (600 μm) were cut on a vibrating microslicer. The slices were perfused with Kreb's solution (8-10 ml/min) that was saturated with 95% O2 and 5% CO2 at 36±1° C. for at least 1-3 hours prior to experiment. The Kreb's solution contains (in mM): NaCl 117, KCl 3.6, CaCl2 2.5, MgCl2 1.2, NaH2PO4 1.2, NaHCO3 25, and glucose 11.
The whole cell patch-clamp recordings were made from lamina IIo neurons in voltage clamp mode. Patch pipettes were fabricated from thin-walled, borosilicate, glass-capillary tubing (1.5 mm o.d., World Precision Instruments). After establishing the whole-cell configuration, neurons were held at the potential of −70 mV to record sEPSCs. The resistance of a typical patch pipette is 5-10 M. The internal solution contains (in mM): potassium gluconate 135, KCl 5, CaCl2 0.5, MgCl2 2, EGTA 5, HEPES 5, ATP-Mg 5. Membrane currents were amplified with an Axopatch 200B amplifier (Axon Instruments) in voltage-clamp mode. Signals were filtered at 2 kHz and digitized at 5 kHz. Data were stored with a personal computer using pCLAMP 10 software and analyzed with Mini Analysis (Synaptosoft Inc.).

TLR3 [7] = biological target: T2, TLR3; assay: Scratching after intradermal PIC in naive mice and after AEW dry skin treatment; type: in vivo; parameters: from tissue; host or cells: mouse DRG (dissociated small neurons), lumbar spinal cord slices, neck skin of live mice
Experimental: Mice were habituated to the testing environment daily for at least two days before analysis. <ice were shaved at the back of the neck the day before injection. We put mice in small plastic chambers (14×18×12 cm) on an elevated metal mesh floor and allowed 30 min for habituation before examination. We injected 50 μl of pruritic agent intradermally in the nape of the neck and counted the number of scratches every 5 min for 30 min after the injection. A scratch was counted when a mouse lifted its hindpaw to scratch the shaved region and returned the paw to the floor or to the mouth for licking. On the basis of previous reports (4; 5) and our preliminary studies (6), we chose the following doses for pruritic agents: 25 ng for ET-1, 20 μg for 5-HT, 100 μg for HTMT, compound 48/80, and SLIGRL-NH2, 200 μg for chloroquine, 300 μg for trypsin, and 500 μg for histamine and 4-MeHA. We also injected diluted formalin (0.6%, 50 μl) in the nape to induce scratching behaviors. The experimenters were blinded to the genotypes of the animals. We also produced a dry skin model for chronic itch as described in detail previously (7), by painting neck skin with acetone and diethyether (1:1) following by water (AEW) twice a day for 7 days, and examined spontaneous itch by counting the number of scratches for 60 minutes on day 8 and 9.

T1 sequence (Q704Y3 whole entry): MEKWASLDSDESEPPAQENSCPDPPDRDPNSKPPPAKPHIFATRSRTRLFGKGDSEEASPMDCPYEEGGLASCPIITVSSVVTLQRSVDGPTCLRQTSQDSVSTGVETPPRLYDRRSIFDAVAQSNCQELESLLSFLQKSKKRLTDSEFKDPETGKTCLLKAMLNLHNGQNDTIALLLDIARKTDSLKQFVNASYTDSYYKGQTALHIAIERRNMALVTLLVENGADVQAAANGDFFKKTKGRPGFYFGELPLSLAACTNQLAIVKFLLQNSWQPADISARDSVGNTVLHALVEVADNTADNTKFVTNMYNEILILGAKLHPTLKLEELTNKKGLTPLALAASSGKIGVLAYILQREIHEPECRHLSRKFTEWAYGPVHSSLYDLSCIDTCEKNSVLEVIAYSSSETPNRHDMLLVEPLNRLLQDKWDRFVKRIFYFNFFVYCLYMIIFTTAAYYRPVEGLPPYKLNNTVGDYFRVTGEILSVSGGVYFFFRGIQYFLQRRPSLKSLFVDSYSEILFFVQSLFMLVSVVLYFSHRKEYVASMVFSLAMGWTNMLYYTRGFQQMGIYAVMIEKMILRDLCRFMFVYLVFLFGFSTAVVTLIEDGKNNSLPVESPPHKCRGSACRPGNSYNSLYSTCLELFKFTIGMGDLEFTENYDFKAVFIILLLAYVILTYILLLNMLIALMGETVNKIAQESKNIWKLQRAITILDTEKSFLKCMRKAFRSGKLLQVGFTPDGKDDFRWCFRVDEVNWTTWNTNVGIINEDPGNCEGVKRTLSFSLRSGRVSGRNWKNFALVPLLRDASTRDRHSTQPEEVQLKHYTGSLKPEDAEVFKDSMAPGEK

Compound: COc1cc(CNC(=O)CCCC/C=C/C(C)C)ccc1O [capsaicin]
behavior after intrathecal injection (TRPV1 [1]): induced biting, licking and scratching behavior | neurons with intracellular Ca2+ increases (DRG neurons): 39% | sEPSC frequency in lamina II neurons (TRPV1 [2]): dramatic increase

Compound: AS-ODNs: Antisense oligodeoxynucleotides 5′-AACAATTGCTTCAAGTCC-3′ (SEQ ID NO:1) targeting TLR3, synthesized by Invitrogen (DNA, backbone not given here)
chloroquine-induced scratching (TLR3 [3]): significantly inhibited | compound 48/80-induced scratching (TLR3 [3]): significantly inhibited | TLR3 protein and mRNA levels in DRGs (TLR3 [4]): partial knockdown | TLR4 expression in the DRG (TLR4): did not affect

neurons that respond to PIC (TLR3 [5]; PIC 200 ng/ml, small DRG neurons, all also express TLR3 mRNA): four neurons (out of ten) | inward currents in DRG neurons from Tlr3-/- mice (TLR3 [5]; Tlr3-/- mice): failed to induce inward currents | neurons in which an inward current was elicited (TLR3 [5]; dissociated DRG neurons, WT, PIC 100-1000 ng/ml, 5 out of 8): 60% | sEPSC frequency (TLR3 [6]): increased | spontaneous scratching after AEW treatment (TLR3 [7]; intradermal PIC, TLR3-dependent, P<0.05): able to potentiate
Compound: polyribo-inosinic/cytidylic acid [PIC]
scratching responses in naive mice (TLR3 [7]; intradermal PIC 0.1-100 μg): failed to induce obvious scratching responses
